Assay results from patent US20240300934A1, “COMPOUNDS FOR MODULATING MYCOBACTERIUM TUBERCULOSIS RESPONSE” (priority 2021, published 2024).
≈ marks a conversion by molar mass, not a printed value. Where two headings read alike, the source gives them in different places.

Tests used:
[1] = tested on: rv2390c′::GFP reporter Mtb strain; assay type: cell-based, Mycobacterium tuberculosis
[2] = tested on: Mtb in bone marrow-derived macrophages (BMDMs); test: Mtb growth in primary murine bone marrow-derived macrophages (CFU); assay type: cell-based, Mycobacterium tuberculosis; settings: 10 μM; added 2 hrs post-infection; eight-day time-course
Description: C57BL/6J wild type mice (Jackson Laboratories) were used for extraction of bone marrow-derived macrophages. Cells were harvested and expanded in DMEM containing 10% FBS, 15% L-cell conditioned media, 2 mM L-glutamine, 1 mM sodium pyruvate, and penicillin/streptomycin as needed in a 37° C. incubator in a 5% CO2 atmosphere. […] Macrophages were lysed with water containing 0.01% sodium dodecyl sulfate and a dilution series of the samples plated on 7H10 agar for CFU determination.

[3] = Kinetic aqueous solubility in pH 7.4 PBS; assay type: physicochemical; settings: read-out: Kinetic Aqueous Solubility S
Description: (§1) Assays examining mouse and human liver microsomal stability, kinetic aqueous solubility, mouse and human plasma protein binding and stability, and human cytochrome P450 inhibition characteristics of the compounds were run by BioDuro, Incorporated, using standard protocols as previously described (Wang et al, 2020). hERG inhibition assays were also performed by BioDuro, Incorporated.

[4] = Mouse liver microsomal stability; assay type: in vitro ADME; settings: mouse liver microsomes
Description: as §1

[5] = Human liver microsomal stability; assay type: in vitro ADME
Vero cells = test: Vero cell toxicity assay; assay type: cell-based, African green monkey; settings: 72 h
Description: Vero cells (African green monkey kidney epithelial cells; ATCC CCL-81) were maintained in DMEM+10% FBS. For the cell toxicity assay, Vero cells were plated at 1×10^5 cells/well in a 96-well plate and incubated for 2-3 h to allow cells to settle. The test compound was dissolved in DMSO at a final concentration of 12 mg/ml. The test compound solution was then added to plated cells, resulting in final test concentrations of 50 to 0.78 μg/ml, with each concentration tested at least in duplicate. To evaluate […] cell viability, 20 μl of a 1:20 MTS:PMS reagent (Promega CellTiter 96 AQueous non-radioactive cell proliferation assay kit) was added to each well after 72 h of incubation at 37° C. and the plate then incubated for an additional 3 h. Absorbance at 490 nm was read on a Molecular Devices SpectraMax M5 microplate reader. The CC50 (the minimal amount of compound that inhibited Vero cell growth by 50%) was extrapolated by plotting absorbance at 490 nm versus the […].

[6] = Human plasma protein binding; assay type: in vitro ADME
Description: as §1

human CYP 450 2C9 = human CYP 450 2C9 (Homo sapiens, UniProt P11712); test: Human cytochrome P450 inhibition, 2C9; assay type: in vitro ADME; settings: 10 μM
Chain of human CYP 450 2C9 (P11712 whole entry): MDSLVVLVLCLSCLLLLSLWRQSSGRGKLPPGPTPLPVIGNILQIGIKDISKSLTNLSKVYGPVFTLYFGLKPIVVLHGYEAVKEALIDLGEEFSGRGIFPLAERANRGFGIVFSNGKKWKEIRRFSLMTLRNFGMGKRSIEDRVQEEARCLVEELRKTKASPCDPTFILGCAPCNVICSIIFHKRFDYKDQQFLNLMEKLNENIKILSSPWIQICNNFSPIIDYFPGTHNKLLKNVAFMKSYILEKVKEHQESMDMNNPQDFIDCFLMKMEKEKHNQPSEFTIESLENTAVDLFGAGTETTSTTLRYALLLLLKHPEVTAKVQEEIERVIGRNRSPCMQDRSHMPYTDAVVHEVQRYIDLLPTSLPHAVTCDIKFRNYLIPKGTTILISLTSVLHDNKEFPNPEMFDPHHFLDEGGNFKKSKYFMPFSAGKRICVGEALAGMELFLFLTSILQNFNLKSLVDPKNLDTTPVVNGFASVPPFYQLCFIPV

human CYP 450 2C19 = human CYP 450 2C19 (Homo sapiens, UniProt P33261); test: Human cytochrome P450 inhibition, 2C19; assay type: in vitro ADME; settings: 10 μM
Chain of human CYP 450 2C19 (P33261 whole entry): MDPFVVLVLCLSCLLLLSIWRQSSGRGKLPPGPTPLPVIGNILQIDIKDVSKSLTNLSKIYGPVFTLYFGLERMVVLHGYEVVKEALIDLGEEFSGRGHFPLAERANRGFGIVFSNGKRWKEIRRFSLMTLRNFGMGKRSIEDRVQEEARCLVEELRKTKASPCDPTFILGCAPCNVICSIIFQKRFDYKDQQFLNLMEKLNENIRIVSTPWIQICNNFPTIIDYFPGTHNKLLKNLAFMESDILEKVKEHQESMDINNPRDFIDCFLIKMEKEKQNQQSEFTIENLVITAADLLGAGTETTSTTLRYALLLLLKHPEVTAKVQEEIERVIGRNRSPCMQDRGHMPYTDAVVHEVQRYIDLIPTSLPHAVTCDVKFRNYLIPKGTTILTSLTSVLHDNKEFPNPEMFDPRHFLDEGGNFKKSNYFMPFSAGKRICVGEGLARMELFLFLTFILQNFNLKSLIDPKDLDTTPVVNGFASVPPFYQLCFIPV

human CYP 450 2D6 = human CYP 450 2D6 (Homo sapiens, UniProt P10635); test: Human cytochrome P450 inhibition, 2D6; assay type: in vitro ADME; settings: 10 μM
Chain of human CYP 450 2D6 (P10635 whole entry): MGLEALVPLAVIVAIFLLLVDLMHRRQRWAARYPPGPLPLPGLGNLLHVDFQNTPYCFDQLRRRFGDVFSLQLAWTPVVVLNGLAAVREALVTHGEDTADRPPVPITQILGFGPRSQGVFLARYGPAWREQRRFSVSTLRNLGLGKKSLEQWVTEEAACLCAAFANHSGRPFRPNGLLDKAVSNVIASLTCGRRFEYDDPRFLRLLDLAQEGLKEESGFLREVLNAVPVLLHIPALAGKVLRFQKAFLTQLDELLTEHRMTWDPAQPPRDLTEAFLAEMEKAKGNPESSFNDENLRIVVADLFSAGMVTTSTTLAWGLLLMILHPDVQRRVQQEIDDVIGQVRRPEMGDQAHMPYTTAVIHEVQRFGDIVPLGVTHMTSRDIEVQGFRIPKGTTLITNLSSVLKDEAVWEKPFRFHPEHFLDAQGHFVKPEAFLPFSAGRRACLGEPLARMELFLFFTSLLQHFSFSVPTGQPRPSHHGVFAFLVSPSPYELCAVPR

human CYP 450 3A4/5 = test: Human cytochrome P450 inhibition, 3A4/5; assay type: in vitro ADME; settings: 10 μM
Mtb [7] = test: Mtb growth assay in cholesterol media (OD600); assay type: cell-based, Mycobacterium tuberculosis
Mtb [8] = test: C3HeB/FeJ murine Mtb infection model; assay type: in vivo, C3HeB/FeJ mice
Description: C3HeB/FeJ wild type mice (Jackson Laboratories) were infected intranasally with 10^3 CFUs of Mtb (35 μl), under light anesthesia with 2% isoflurane (MacGilvary et al, 2019; Sukumar et al, 2014; Tan et al, 2013). […] The next day the suspension was homogenized by bead beating with 5 mm steel beads in a TOMY microtube mixer (2×20 s), and stored at 4° C. until use. […] Administration began at two or six weeks post-infection as indicated. At time of sacrifice, the left lobe and accessory right lobe of the lung were homogenized in PBS+0.05% Tween 80 and serial dilutions plated on 7H10 agar plates with 100 μg/ml cycloheximide for bacterial load determination. The remaining three right lobes were fixed in 4% PFA in PBS. One lobe was used for histological analysis by standard hematoxylin and eosin (H&E) staining (Tufts Comparative Pathology Services). A Nikon Eclipse E400 with a SPOT insight color digital camera was used to image the histology samples.

J774 cells = test: Intracellular drug accumulation assay in J774 cells; settings: 24 h exposure; uninfected J774 cells
Mtb-infected J774 cells = settings: 10 μM for 24 h; 5 days post-infection
[9] = 250 mg/kg oral gavage 5 times a week for 2 weeks, started 2 weeks post-infection
[10] = 250 mg/kg oral gavage for two or four weeks, started 6 weeks post-infection

## CCSc1ncc(CN2CCN(c3nc4ccccc4o3)CC2)cn1 [Compound C6, 2-(4-((2-(ethylthio)pyrimidin-5-yl)methyl)piperazin-1-yl)benzo[d]oxazole]
[1]; 10 μM, 250 mM NaCl
  rv2390c′::GFP reporter signal upon Mtb exposure to high [Cl−] (in words): increased rv2390c′::GFP reporter signal
[1]; compared to C6
  rv2390c′::GFP Cl− response phenotype: Y
[1]; screen hits, high chloride (250 mM NaCl, pH 6.4)
  rv2390c′::GFP response phenotype: Increases induction in high
[2]
  Mtb bacterial load / growth in primary murine BMDM (in words): significant decrease in bacterial load
[3]; PBS, pH 7.4, aqueous buffer, kinetic from dmso stock, Table 2
  solubility kinetic: 76.4 µM (≈ 27.2 µg/mL)
[3]; pH 7.4 phosphate buffered saline (PBS)
  solubility kinetic: 76.4 µM (≈ 27.2 µg/mL)
[4]
  MLM t1/2: 48.5 min
[5]
  t1/2 in human liver microsomes: 37.6 min
Vero cells
  CC50 (minimum compound concentration to inhibit cell growth by 50%): > 50 µg/mL
[6]
  protein binding to human plasma: 99.2%
Human CYP 450 2C9
  % inhibition of CYP 2C9: 25.7%
Human CYP 450 2C19
  % inhibition of CYP 2C19: 30.3%
Human CYP 450 2D6
  % inhibition of CYP 2D6: 10.5%
Human CYP 450 3A4/5
  % inhibition of CYP 3A4/5: < 1%
Mtb [7]; 10 μM, 4 mM acetate or 200 μM stearate
  effect of even chain fatty acids on growth inhibition in cholesterol media: rescue inhibition
Mtb [7]; 10 μM, OD600
  Mtb growth in cholesterol media (in words): inhibited Mtb growth in cholesterol media
Mtb [7]; 10 μM, additional odd chain carbon source
  effect of odd chain fatty acids on growth inhibition in cholesterol media: do not rescue inhibition
Mtb [7]; 10 μM, vitamin B12 added
  effect of vitamin B12 on growth inhibition in cholesterol media: does not rescue inhibition
Mtb [7]; compared to C6
  Growth inhibition in cholesterol media phenotype: Y
Mtb [8]; [9]
  Mtb growth in lungs (CFU), short-term infection: significantly inhibited Mtb growth in the mice lungs
  lung histology, short-term infection: less cellular infiltration
Mtb [8]; [10]
  lung bacterial load, longer-term infection: significant decrease in bacterial load
  lung histopathology, longer-term infection: improved histopathology
J774 cells
  intracellular accumulation in J774 cells: dose-dependent accumulation
Mtb-infected J774 cells
  accumulation in Mtb-infected J774 cells: trend of greater C6 accumulation in the Mtb-infected J774 cells than uninfected J774 cells
